The values below come from PubChem BioAssay (NCI).

What all share (assay): NCI tumour cell line growth inhibition, 48 h
Assay [1] concerns 786-0 renal.
In assay [2] the test system is CCRF-CEM leukemia.
Assay [3] deals with COLO 205 colon.
Assay [4] has as its system HCT-116 colon.
Assay [5] relates to HCT-15 colon.
For assay [6], the system named is HOP-62 NSCLC.
Assay [7] has as its system HT29 colon.
Assay [8] relates to MCF7 breast.
Assay [9] has as its system MDA-MB-231 breast.
Assay [10] deals with NCI-H522 lung.
In assay [11] the test system is OVCAR-3 ovarian.
The subject of assay [12] is OVCAR-5 ovarian.
Assay [13] concerns OVCAR-8 ovarian.
Assay [14] has as its system PC-3 prostate.
Assay [15] has as its system RXF 393 renal.
Assay [16] has as its system SF-268 CNS.
Assay [17] has as its system SK-MEL-28 melanoma.
For assay [18], the system named is SR leukemia.
Assay [19] has as its system UACC-62 melanoma.
The test system of assay [20] is UO-31 renal.

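Method: 48-hour compound exposure of cells in 96-well plates, five concentrations, linear interpolation of endpoints. The concentration for full growth arrest is given as TGI.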 Bounds are passed on as bounds.

As to `O=c1[nH]c(=O)n(C2C(CO)OC(CO)C2O)cc1F` (stereo not given), the TGI in assay [1], in [2], in assay [3], in assay [4], in assay [5] and in [6] was more than 100 µM each time. Further, the TGI in assay [7], in assay [8], in assay [9], in [10], in assay [11] and in [12] was more than 100 µM throughout. Also, the TGI in [13], in [14], in [15], in assay [16], in assay [17] and in assay [18] was more than 100 µM each time. Further, the TGI in assay [19] and in assay [20] was more than 100 µM each time.
For the compound `C=CCNC(=O)CN(CC(=O)O)C1CCCCC1N(CC(=O)O)CC(=O)O` (stereo not given), the TGI in assay [1], in [2], in assay [3], in [4], in [5] and in [6] was more than 100 µM in each case. The TGI in assay [7], in [8], in assay [9], in [10], in assay [11] and in [12] was more than 100 µM each time. Also, the TGI in assay [13], in [14], in assay [15], in assay [16], in [17] and in assay [18] was more than 100 µM throughout. The TGI in assay [19] and in assay [20] was more than 100 µM each time.
`COc1cccc(C(NC2=NCCC=N2)c2cc3c(cc2O)OCO3)c1O` (stereo not given): the TGI in assay [1] was 25.6 µM; in [2] it was 32.8 µM; in [3] it was more than 100 µM; in assay [4], 62.5 µM; in [5], 27.7 µM; in [6] it was 55.5 µM. Further, the TGI in assay [7] was more than 100 µM; in assay [8], 35.3 µM; in assay [9], 59.9 µM; in assay [10], 40.2 µM; in [11] it was 59.7 µM; in [12] it was more than 100 µM. In addition, the TGI in assay [13] was 25.4 µM; in [14], more than 100 µM; in assay [15] it was 63 µM; in [16] it was more than 100 µM; in assay [17], more than 100 µM; in [18] it was 34.9 µM. Moreover, the TGI in assay [19] is 59 µM; in [20], more than 100 µM.
Turning to `Cc1ccc(S(=O)(=O)N2CCN(S(=O)(=O)c3ccc(C)cc3)CCN(S(=O)(=O)c3ccc(C)cc3)Cc3cc(Br)c(Br)cc3CN(S(=O)(=O)c3ccc(C)cc3)CC2)cc1`, the TGI in assay [1], in assay [2], in [3], in assay [4], in assay [5] and in [6] was more than 100 µM throughout. In addition, the TGI in assay [7] is more than 100 µM; in assay [8], more than 100 µM; in [9], 71.1 µM; in [10], more than 100 µM; in assay [11] it was more than 100 µM; in assay [12] it was more than 100 µM. The TGI in assay [13], in assay [14], in assay [15], in [16], in assay [17] and in [18] was more than 100 µM in each case. For the same compound, the TGI in [19] and in assay [20] was more than 100 µM in each case.
Consider `CN(CCNC(=S)c1cn(C)c2c1ccc1ccccc12)CCNC(=S)c1cn(C)c2c1ccc1ccccc12`, for which the TGI in [1], in [2], in [3], in assay [4], in assay [5] and in assay [6] was more than 100 µM in each case. Besides, the TGI in [7], in assay [8], in [9], in [10], in [11] and in [12] was more than 100 µM in each case. The TGI in assay [13] is more than 100 µM; in [14], more than 100 µM; in assay [15], 7.47 µM; in assay [16], more than 100 µM; in assay [17] it was more than 100 µM; in assay [18] it was more than 100 µM. For the same compound, the TGI in assay [19] and in assay [20] was more than 100 µM in each case.
With `C=C1C2CCC3(CCC4C5(C)CCCC4(C=[N+](CCO)C5)C3C2)C1O` (stereo not given), the TGI in assay [1], in assay [2], in assay [3], in assay [4], in [5] and in [6] was more than 100 µM in each case. For the same compound, the TGI in assay [7], in assay [8], in assay [9], in [10], in assay [11] and in assay [12] was more than 100 µM throughout. In addition, the TGI in assay [13], in assay [14], in [15], in [16], in assay [17] and in [18] was more than 100 µM in each case. Also, the TGI in assay [19] and in assay [20] was more than 100 µM each time.
Turning to `c1n[nH]cc1C12C3C4C5C3C1C5C42` (stereo not given), the TGI in assay [1], in assay [2], in assay [3], in assay [4], in [5] and in assay [6] was more than 100 µM in each case. In addition, the TGI in [7], in assay [8], in assay [9], in [10], in assay [11] and in assay [12] was more than 100 µM each time. Further, the TGI in assay [13], in assay [14], in assay [15], in assay [16], in assay [17] and in assay [18] was more than 100 µM throughout. The TGI in [19] and in assay [20] was more than 100 µM each time.
